The assay relates to ovarectomised female rats. Kind of assay: experimental osteoporosis in ovarectomised female rats, oral administration. The class given is in vivo. Particulars: for symptoms of osteoporosis: female rats after surgically removed ovaries, administered orally, not yet published experimental results. The method, then:
An experiment was carried out on ovarectomised female rats in which an experimental osteoporosis was induced.

The mark [1] stands for this setting: ovarectomised female rats with induced experimental osteoporosis, oral, molecular weight over 500 000 g/mol, dosage 150 to 4500 μg/kg.

In the case of calcium hyaluronate, the symptoms of osteoporosis entry is reported as “able to suppress symptoms of osteoporosis”.
sodium hyaluronate: the symptoms of osteoporosis entry is “able to suppress symptoms of osteoporosis”. Moreover, under setting [1], the bone density entry is “normalisation of bone density” and the “excretion of the metabolite of bone matrix breakdown into urine” value was “returned to normal”.
